Measurements from patent publication US20140303164A1, “THERAPEUTIC COMPOUNDS” (Gilead Sciences, Inc., priority 2013, published 2014).

Legend:
[1] = Test B: Cytotoxicity Assay; format: cell-based; conditions: human, uninfected MT-4 cells, same protocol as Test A
How it was run: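 Uninfected MT-4 cells (2000 per well) incubated with diluted compound at 37° C. for 5 days, following the antiviral protocol without HIV-IIIb.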

HIV-IIIb = assay: Test A: Antiviral Assay in MT4 Cells; format: cell-based, HIV-1; conditions: Human immunodeficiency virus 1, IIIB, MT4, 120 h; for inhibition at 0.2 µM: read-out: % inhibition at 0.2 μM; for inhibition at 2 µM: read-out: % inhibition at 2 μM
Description: Test A: Antiviral Assay in MT4 Cells
MT-4 cells were next mixed with HIV-IIIb at an m.o.i of 0.003 for 1 hour, after which time 35 μL of virus/cell mixture (2000 cells) was immediately added to each well containing 40 μL of diluted compound. The plates were then incubated at 37° C. for 5 days. […] Cell lysis was carried out by incubating at room temperature for 10 min and then chemiluminescence was read.

## CC(C)(O)C#Cc1ccc(-c2ccc(Cl)n3c(NS(C)(=O)=O)nnc23)c([C@H](Cc2cc(F)cc(F)c2)NC(=O)Cn2nc(C(F)F)c3c2C(F)(F)[C@@H]2C[C@H]32)n1 [Compound 110E, N—((S)-1-(3-(5-chloro-3-(methylsulfonamido)-[1,2,4]triazolo[4,3-a]pyridin-8-yl)-6-(3-hydroxy-3-methylbut-1-yn-1-yl)pyridin-2-yl)-2-(3,5-difluorophenyl)ethyl)-2-((3b-S,4aR)-3-(difluoromethyl)-5,5-difluoro-3b,4,4a,5-tetrahydro-1H-cyclopropa[3,4]cyclopenta[1,2-c]pyrazol-1-yl)acetamide]
[1]
  CC50 at 5 days: > 53.2 µM
HIV-IIIb
  inhibition at 0.2 µM: 15%
  inhibition at 2 µM: 98%

## Cn1nc(NCC(F)F)c2cccc(-c3ccc(C#CC(C)(C)O)nc3[C@H](Cc3cc(F)cc(F)c3)NC(=O)Cn3nc(C(F)F)c4c3C(F)(F)[C@@H]3C[C@H]43)c21 [Compound 74D, N—((S)-1-(3-(3-((2,2-difluoroethyl)amino)-1-methyl-1H-indazol-7-yl)-6-(3-hydroxy-3-methylbut-1-yn-1-yl)pyridin-2-yl)-2-(3,5-difluorophenyl)ethyl)-2-((3b-S,4aR)-3-(difluoromethyl)-5,5-difluoro-3b,4,4a,5-tetrahydro-1H-cyclopropa[3,4]cyclopenta[1,2-c]pyrazol-1-yl)acetamide]
[1]
  CC50 at 5 days: 6.91 µM
HIV-IIIb
  inhibition at 0.2 µM: 99%
  inhibition at 2 µM: 99%

## Cc1ccc(-c2ccc(C#CC(C)(C)C)nc2[C@H](Cc2cc(F)cc(F)c2)NC(=O)Cn2nc(C(F)F)c3c2C(F)(F)[C@@H]2C[C@H]32)c2nnc(NS(C)(=O)=O)n12 [Compound 133, 2-((3bS,4aR)-3-(difluoromethyl)-5,5-difluoro-3b,4,4a,5-tetrahydro-1H-cyclopropa[3,4]cyclopenta[1,2-c]pyrazol-1-yl)-N—((S)-2-(3,5-difluorophenyl)-1-(6-(3,3-dimethylbut-1-yn-1-yl)-3-(5-methyl-3-(methylsulfonamido)-[1,2,4]triazolo[4,3-a]pyridin-8-yl)pyridin-2-yl)ethyl)acetamide]
[1]
  CC50 at 5 days: 16.8 µM
HIV-IIIb
  inhibition at 0.2 µM: 90%
  inhibition at 2 µM: 90%

## C[C@@H](O)C#Cc1ccc(-c2ccc(Cl)c3c(NS(C)(=O)=O)nn(C)c23)c([C@H](Cc2cc(F)cc(F)c2)NC(=O)Cn2nc(C(F)F)c3c2C(F)(F)[C@@H]2C[C@H]32)n1 [Compound 143, N—((S)-1-(3-(4-chloro-1-methyl-3-(methylsulfonamido)-1H-indazol-7-yl)-6-((R)-3-hydroxybut-1-yn-1-yl)pyridin-2-yl)-2-(3,5-difluorophenyl)ethyl)-2-((3b-S,4aR)-3-(difluoromethyl)-5,5-difluoro-3b,4,4a,5-tetrahydro-1H-cyclopropa[3,4]cyclopenta[1,2-c]pyrazol-1-yl)acetamide]
[1]
  CC50 at 5 days: 11.3 µM
HIV-IIIb
  inhibition at 0.2 µM: 98%
  inhibition at 2 µM: 98%

## Cn1cc(-c2ccc(-c3cccc4c(NS(C)(=O)=O)nn(C)c34)c([C@H](Cc3cc(F)cc(F)c3)NC(=O)Cn3nc(C(F)(F)F)c4c3C(F)(F)[C@@H]3C[C@H]43)n2)cn1 [Compound 60, 2-((3bS,4aR)-5,5-difluoro-3-(trifluoromethyl)-3b,4,4a,5-tetrahydro-1H-cyclopropa[3,4]cyclopenta[1,2-c]pyrazol-1-yl)-N—((S)-2-(3,5-difluorophenyl)-1-(6-(1-methyl-1H-pyrazol-4-yl)-3-(1-methyl-3-(methylsulfonamido)-1H-indazol-7-yl)pyridin-2-yl)ethyl)acetamide]
[1]
  CC50 at 5 days: 14.3 µM
HIV-IIIb
  inhibition at 0.2 µM: 86%
  inhibition at 2 µM: 96%

## Cn1nc(NS(C)(=O)=O)c2c(Cl)ccc(-c3ccc(C#CC(C)(C)O)nc3[C@H](Cc3cc(F)cc(F)c3)NC(=O)Cc3ccc4ccccc4c3)c21 [Compound 200, (S)—N-(1-(3-(4 chloro-1-methyl-3-(methylsulfonamido)-1H-indazol-7-yl)-6-(3-hydroxy-3-methylbut-1-yn-1-yl)pyridin-2-yl)-2-(3,5-difluorophenyl)ethyl)-2-(naphthalen-2-yl)acetamide]
[1]
  CC50 at 5 days: 12.2 µM
HIV-IIIb
  inhibition at 0.2 µM: 89%
  inhibition at 2 µM: 90%

## Cc1cc2ncn(CC(=O)N[C@@H](Cc3cc(F)cc(F)c3)c3nc(C#CC(C)(C)O)ccc3-c3ccc(Cl)c4c(NS(C)(=O)=O)nn(C)c34)c2cc1C [Compound 199, (S)—N-(1-(3-(4 chloro-1-methyl-3-(methylsulfonamido)-1H-indazol-7-yl)-6-(3-hydroxy-3-methylbut-1-yn-1-yl)pyridin-2-yl)-2-(3,5-difluorophenyl)ethyl)-2-(5,6-dimethyl-1H-benzo[d]imidazol-1-yl)acetamide]
[1]
  CC50 at 5 days: 22.5 µM
HIV-IIIb
  inhibition at 0.2 µM: 95%
  inhibition at 2 µM: 95%

## CC(C)(O)C#Cc1ccc(-c2cccc3c(N)nccc23)c([C@H](Cc2cc(F)cc(F)c2)NC(=O)Cn2nc(C(F)(F)F)c3c2C(F)(F)[C@@H]2C[C@H]32)n1 [Compound 73, N—((S)-1-(3-(1-aminoisoquinolin-5-yl)-6-(3-hydroxy-3-methylbut-1-yn-1-yl)pyridin-2-yl)-2-(3,5-difluorophenyl)ethyl)-2-((3b-S,4aR)-5,5-difluoro-3-(trifluoromethyl)-3b,4,4a,5-tetrahydro-1H-cyclopropa[3,4]cyclopenta[1,2-c]pyrazol-1-yl)acetamide]
[1]
  CC50 at 5 days: 4.49 µM
HIV-IIIb
  inhibition at 0.2 µM: 86%
  inhibition at 2 µM: 86%

## Cn1nc(NS(C)(=O)=O)c2c(Cl)ccc(-c3ccc(C#CC(C)(C)O)nc3[C@H](Cc3cc(F)cc(F)c3)NC(=O)Cn3nc(Cl)c4c3CCCC4)c21 [Compound 126, (S)—N-(1-(3-(4 chloro-1-methyl-3-(methylsulfonamido)-1H-indazol-7-yl)-6-(3-hydroxy-3-methylbut-1-yn-1-yl)pyridin-2-yl)-2-(3,5-difluorophenyl)ethyl)-2-(3-chloro-4,5,6,7-tetrahydro-1H-indazol-1-yl)acetamide]
[1]
  CC50 at 5 days: 15.5 µM
HIV-IIIb
  inhibition at 0.2 µM: 92%
  inhibition at 2 µM: 92%

## Cc1ccc(C)c2c1NC(=O)C2CC(=O)N[C@@H](Cc1cc(F)cc(F)c1)c1nc(C#CC(C)(C)O)ccc1-c1ccc(Cl)c2c(NS(C)(=O)=O)nn(C)c12 (stereo partly drawn) [Compound 196, N—((S)-1-(3-(4-chloro-1-methyl-3-(methylsulfonamido)-1H-indazol-7-yl)-6-(3-hydroxy-3-methylbut-1-yn-1-yl)pyridin-2-yl)-2-(3,5-difluorophenyl)ethyl)-2-(4,7-dimethyl-2-oxoindolin-3-yl)acetamide]
[1]
  CC50 at 5 days: 10.8 µM
HIV-IIIb
  inhibition at 0.2 µM: 76%
  inhibition at 2 µM: 92%

## Cn1nc(NS(N)(=O)=O)c2c(Cl)ccc(-c3ccc(C#CC(C)(C)O)nc3[C@H](Cc3cc(F)cc(F)c3)NC(=O)Cn3nc(C(F)F)c4c3C(F)(F)CCC4(F)F)c21 [Compound 122, (S)—N-(1-(3-(4 chloro-1-methyl-3-(sulfamoylamino)-1H-indazol-7-yl)-6-(3-hydroxy-3-methylbut-1-yn-1-yl)pyridin-2-yl)-2-(3,5-difluorophenyl)ethyl)-2-(3-(difluoromethyl)-4,4,7,7-tetrafluoro-4,5,6,7-tetrahydro-1H-indazol-1-yl)acetamide]
[1]
  CC50 at 5 days: 9.07 µM
HIV-IIIb
  inhibition at 0.2 µM: 88%
  inhibition at 2 µM: 88%

## CN(C)c1nn(CC(=O)N[C@@H](Cc2cc(F)cc(F)c2)c2nc(C#CC(C)(C)O)ccc2-c2ccc(Cl)c3c(NS(C)(=O)=O)nn(C)c23)c2c1[C@H]1C[C@H]1C2(F)F [Compound 161, N—((S)-1-(3-(4-chloro-1-methyl-3-(methylsulfonamido)-1H-indazol-7-yl)-6-(3-hydroxy-3-methylbut-1-yn-1-yl)pyridin-2-yl)-2-(3,5-difluorophenyl)ethyl)-2-((3b-S,4aR)-3-(dimethylamino)-5,5-difluoro-3b,4,4a,5-tetrahydro-1H-cyclopropa[3,4]cyclopenta[1,2-c]pyrazol-1-yl)acetamide]
[1]
  CC50 at 5 days: 21.8 µM
HIV-IIIb
  inhibition at 0.2 µM: 84%
  inhibition at 2 µM: 84%

## CCN1CCN(CC(=O)N[C@@H](Cc2cc(F)cc(F)c2)c2nc(C#CC(C)(C)O)ccc2-c2ccc(Cl)c3c(NS(C)(=O)=O)nn(C)c23)CC1 [Compound 197, (S)—N-(1-(3-(4 chloro-1-methyl-3-(methylsulfonamido)-1H-indazol-7-yl)-6-(3-hydroxy-3-methylbut-1-yn-1-yl)pyridin-2-yl)-2-(3,5-difluorophenyl)ethyl)-2-(4-ethylpiperazin-1-yl)acetamide]
[1]
  CC50 at 5 days: 15.4 µM
HIV-IIIb
  inhibition at 2 µM: 63%

## Cn1nc(NS(C)(=O)=O)c2c(Cl)ccc(-c3ccc(-c4ncccn4)nc3[C@H](Cc3cc(F)cc(F)c3)NC(=O)Cn3nc(C(F)(F)F)c4c3C(F)(F)[C@@H]3C[C@H]43)c21 [Compound 176, N—((S)-1-(3-(4-chloro-1-methyl-3-(methylsulfonamido)-1H-indazol-7-yl)-6-(pyrimidin-2-yl)pyridin-2-yl)-2-(3,5-difluorophenyl)ethyl)-2-((3b-S,4aR)-5,5-difluoro-3-(trifluoromethyl)-3b,4,4a,5-tetrahydro-1H-cyclopropa[3,4]cyclopenta[1,2-c]pyrazol-1-yl)acetamide]
[1]
  CC50 at 5 days: 17.4 µM
HIV-IIIb
  inhibition at 0.2 µM: 100%
  inhibition at 2 µM: 100%

## Cn1nc(N)c2c(Cl)ccc(-c3ccc(C#CC(C)(C)O)nc3[C@H](Cc3cc(F)cc(F)c3)NC(=O)Cn3nc(C(F)(F)F)c4c3C(F)(F)[C@@H]3C[C@H]43)c21 [Compound 55C, N—((S)-1-(3-(3-amino-4-chloro-1-methyl-1H-indazol-7-yl)-6-(3-hydroxy-3-methylbut-1-yn-1-yl)pyridin-2-yl)-2-(3,5-difluorophenyl)ethyl)-2-((3b-S,4aR)-5,5-difluoro-3-(trifluoromethyl)-3b,4,4a,5-tetrahydro-1H-cyclopropa[3,4]cyclopenta[1,2-c]pyrazol-1-yl)acetamide]
[1]
  CC50 at 5 days: 9.56 µM
HIV-IIIb
  inhibition at 0.2 µM: 92%
  inhibition at 2 µM: 92%
